{"source": "patent US10564164B2", "about": "“Fluorescent probe, singlet oxygen detection agent, and singlet oxygen detection method” (Osaka University, priority 2014, dated 2020)", "key": {"[1]": {"test": "Fluorescence quantum yield in various solvents in the absence of singlet oxygen", "assay_type": "physicochemical", "experimental": "(§1) Further, in the in vitro measurement, unless otherwise specified, all bulk spectrum measurements were performed in a phosphate buffered saline (PBS) having a pH of 7.5 without Ca and Mg or spectral grade methanol. The absorption spectrum and fluorescence spectrum in the ground state were measured using the Shimadzu UV-3100 and Horiba FluoroMax-4, respectively. The bulk irradiation was performed using a xenon light source (LAX-C100, Asahi Spectra Co., Ltd.) and a wavelength filter (BA510-550, Olympus Corporation).\nAs is clear from the above, fluorescence was hardly observed in the absence of singlet oxygen, (Φfl=0.01; in methanol), and the excitation of silicon-rhodamine was cancelled due to photoinduced electron transfer caused by the anthracene structure. The fluorescence in the absence of singlet oxygen also depended on the type of solvent. The fluorescence intensity decreases when a polar solvent is used, thereby inhibiting erroneous signals."}, "HeLa cells": {"tested_on": "HeLa cells", "test": "Viable cell imaging / localization in organelle", "assay_type": "cell-based", "settings": "Si-DMA 20 nM / 100 nM, co-staining with Mito Tracker Green FM", "experimental": "A treatment requiring incubation of less than two hours was performed using a serum-free culture medium containing 20 mM of HEPES, and a treatment requiring incubation of four hours or more was performed using a blood serum-containing medium containing 20 mM of HEPES so as to maintain the cell viability. To label mitochondria, Mito Tracker® Green FM was diluted to 50 nM, and incubated for 30 minutes. Further, 10000 MW of dextran (A488- and A647-dextran) labeled with Alexa Fluor® 488 or Alexa Fluor® 647 was diluted to 50 μg/mL, and incubated for 24 hours, thereby staining lysosome.\nSubsequently, a quick protocol provided by Molecular Probe® for introducing CellROX Green was followed. […] As a result, as previously reported, the conversion of 5-ALA into protoporphyrin IX (PpIX) in the mitochondria was confirmed by the fluorescence luminescence of PpIX.\nIn order to monitor an increase in fluorescence upon light irradiation on Si-DMA of Example 1, irradiation on reactive oxygen species was performed while monitoring the probe using an IX81 inverted fluorescence microscope (Olympus Corporation) and 640-nm CW laser (Coherent). […] The images of luminescence were collected and recorded by an EMCCD camera (Evolve 512; Roper Scientific) via a dichroic beam splitter (DI02-R635; Semrock) and a bandpass filter (HQ690/70; Chroma). […]"}, "[2]": {"test": "Fluorescence/absorption spectrum of probe with TMPyP4 under light irradiation (photosensitised singlet oxygen)", "assay_type": "physicochemical", "settings": "for increase of fluorescence intensity: 50 μM Si-DMA, 5 μM TMPyP4, 50-minute irradiation 510-550 nm, 0.07 W/cm2", "experimental": "as §1\nThe concentration of Si-DMA was 50 μM, and the concentration of TMPyP4 was 5 μM. The light irradiation was performed using a 510- to 550-nm wavelength ray at an intensity of 0.07 W/cm^2 under magnetic stirring so as to generate singlet oxygen.\nIn FIGS. 1a) and 1c), the black arrows denote changes in absorption by peroxidation (solid line) of the anthracene structure and disaggregation of hydrogen aggregate (broken line).\nSubsequently, Si-DMA was reacted with singlet oxygen, thereby forming Si-DMEP; as a result, photoinduced electron transfer was inhibited, thereby increasing the fluorescence intensity (Φfl=0.17). In methanol, the fluorescence intensity increased about 18 times (in methanol), and about 22 times (in PBS) (FIGS. 1b) and 1d); red), and a loss of the anthracene structure was observed (FIG. 1a); black arrow)."}, "[3]": {"test": "Selectivity test against various reactive oxygen species", "assay_type": "physicochemical", "settings": "5 μM in methanol:PBS pH 7.4 1:1, 10 minutes in dark", "experimental": "A test was performed to confirm whether Si-DMA of Example 1 causes no self-oxidation of dye and is selectively responsive to singlet oxygen.\nHowever, formation of aggregates decreases the effective concentration of the dye, thereby decreasing the reaction speed of Si-DMA. Therefore, a 5-μM Si-DMA solution was first prepared using a mixed solvent containing methanol and a pH 7.4 PBS buffer solution mixed at 1:1. In this solution, Si-DMA was present as a monomer. Subsequently, 10-mM solutions of various reactive oxygen species (ROS)(^1O2, O2.^−, H2O2, HOCl, ROO., and .OH) were prepared by adding the following additives to the 5-μM Si-DMA solution obtained above.\n5. ROO.: 10 mM 2,2-azobis(2-amidinopropane)dihydrochloride\nUnder intense magnetic stirring, each Si-DMA solution containing reactive oxygen species (ROS) was stored for 10 minutes in a dark room. […]"}}, "data": [{"compound": "Cc1c2ccccc2c(C)c2cc(C3=C4C=CC(=[N+](C)C)C=C4[Si](C)(C)c4cc(N(C)C)ccc43)ccc12", "note": "[Si-DMA]", "values": [{"measurement": "Φfl (fluorescence quantum yield)", "setting": "[1]; in DMSO", "value": 0.008}, {"measurement": "Φfl (fluorescence quantum yield)", "setting": "[1]; in acetone", "value": 0.010}, {"measurement": "Φfl (fluorescence quantum yield)", "setting": "[1]; in benzene", "value": 0.034}, {"measurement": "Φfl (fluorescence quantum yield)", "setting": "[1]; in chloroform", "value": 0.010}, {"measurement": "Φfl (fluorescence quantum yield)", "setting": "[1]; in methanol", "value": 0.01}, {"measurement": "Φfl (fluorescence quantum yield)", "setting": "[1]; in toluene", "value": 0.030}, {"measurement": "intracellular localization", "setting": "HeLa cells", "value": "selectively localized in mitochondria"}, {"measurement": "stability (color fading) under light irradiation", "setting": "[2]; after 900 seconds", "value": "color fading was not observed"}, {"measurement": "increase of fluorescence intensity", "setting": "[2]; in PBS", "value": "about 22 times"}, {"measurement": "increase of fluorescence intensity", "setting": "[2]; in methanol", "value": "about 18 times"}, {"measurement": "change of fluorescence on light irradiation", "setting": "[2]; in the absence of TMPyP4", "value": "did not increase"}, {"measurement": "fluorescence intensity in the presence of reactive oxygen species", "setting": "[3]; other reactive oxygen species (O2.-, H2O2, HOCl, ROO., .OH)", "value": "no increase in fluorescence was observed"}, {"measurement": "fluorescence intensity in the presence of reactive oxygen species", "setting": "[3]; singlet oxygen (10 mM NaOCl and 10 mM H2O2)", "value": "significantly increased"}]}]}
